Data as given in PubChem BioAssay (NCI).
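Briefly, cells in 96-well plates were exposed to five compound concentrations for 48 h, and endpoints were estimated by linear interpolation. Definition used: TGI = concentration required for complete inhibition of growth.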

How the values were obtained:
Assay in all cases: DTP human tumour cell line panel, 48 h
UACC-257 melanoma = test system: UACC-257 melanoma
M19-MEL melanoma = test system: M19-MEL melanoma
RXF-631 renal = test system: RXF-631 renal
SW-620 colon = test system: SW-620 colon
EKVX NSCLC = test system: EKVX NSCLC
HT29 colon = test system: HT29 colon
SF-268 CNS = test system: SF-268 CNS
LXFL 529 NSCLC = test system: LXFL 529 NSCLC
HOP-62 NSCLC = test system: HOP-62 NSCLC
M14 melanoma = test system: M14 melanoma
U251 CNS = test system: U251 CNS
MOLT-4 leukemia = test system: MOLT-4 leukemia
SK-MEL-2 melanoma = test system: SK-MEL-2 melanoma
SNB-19 CNS = test system: SNB-19 CNS
A549 NSCLC = test system: A549 NSCLC
NCI-H226 lung = test system: NCI-H226 lung
DMS 114 small cell lung = test system: DMS 114 small cell lung
SF-295 CNS = test system: SF-295 CNS
A498 renal = test system: A498 renal
HCT-116 colon = test system: HCT-116 colon
SK-MEL-5 melanoma = test system: SK-MEL-5 melanoma
RXF 393 renal = test system: RXF 393 renal
HCC-2998 colon = test system: HCC-2998 colon
DLD-1 colon = test system: DLD-1 colon
OVCAR-5 ovarian = test system: OVCAR-5 ovarian
SNB-78 CNS = test system: SNB-78 CNS
K-562 leukemia = test system: K-562 leukemia
IGROV1 ovarian = test system: IGROV1 ovarian
SN12C renal = test system: SN12C renal
786-0 renal = test system: 786-0 renal
SK-OV-3 ovarian = test system: SK-OV-3 ovarian
SNB-75 CNS = test system: SNB-75 CNS
UACC-62 melanoma = test system: UACC-62 melanoma
UO-31 renal = test system: UO-31 renal
NCI-H23 lung = test system: NCI-H23 lung
HOP-92 NSCLC = test system: HOP-92 NSCLC
OVCAR-8 ovarian = test system: OVCAR-8 ovarian
NCI-H522 lung = test system: NCI-H522 lung
CAKI-1 renal = test system: CAKI-1 renal
COLO 205 colon = test system: COLO 205 colon
LOX IMVI melanoma = test system: LOX IMVI melanoma
NCI-H460 lung = test system: NCI-H460 lung
ACHN renal = test system: ACHN renal
CCRF-CEM leukemia = test system: CCRF-CEM leukemia
TK-10 renal = test system: TK-10 renal
SR leukemia = test system: SR leukemia
MALME-3M melanoma = test system: MALME-3M melanoma
OVCAR-3 ovarian = test system: OVCAR-3 ovarian
RPMI-8226 leukemia = test system: RPMI-8226 leukemia
DMS 273 small cell lung = test system: DMS 273 small cell lung
HOP-18 NSCLC = test system: HOP-18 NSCLC
HCT-15 colon = test system: HCT-15 colon
KM12 colon = test system: KM12 colon
SK-MEL-28 melanoma = test system: SK-MEL-28 melanoma
OVCAR-4 ovarian = test system: OVCAR-4 ovarian
KM20L2 colon = test system: KM20L2 colon
SF-539 CNS = test system: SF-539 CNS
XF 498 CNS = test system: XF 498 CNS
HL-60(TB) leukemia = test system: HL-60(TB) leukemia

Molecule `CCCCCCCCCCCCCCCCCC[N+](C)(C)Cc1ccc(C[N+](C)(C)CCCCCCCCCCCCCCCCCC)cc1` has a TGI (UACC-257 melanoma) of 34 µM, a TGI (M19-MEL melanoma) of 59.8 µM and a TGI (RXF-631 renal) of 57.1 µM. The TGI (SW-620 colon) was > 100 µM, the TGI (EKVX NSCLC) was 43.1 µM and the TGI (HT29 colon) was 38.6 µM. For the same molecule, the TGI (SF-268 CNS) was 43.1 µM, the TGI (LXFL 529 NSCLC) was 12.8 µM and the TGI (HOP-62 NSCLC) was 34.7 µM. For the same molecule, the TGI (M14 melanoma) was 49 µM, the TGI (U251 CNS) was 56.2 µM and the TGI (MOLT-4 leukemia) was 51.8 µM. The TGI (SK-MEL-2 melanoma) was > 100 µM, the TGI (SNB-19 CNS) was 76.1 µM and the TGI (A549 NSCLC) was 38.8 µM. For the same molecule, the TGI (NCI-H226 lung) was 41.5 µM, the TGI (DMS 114 small cell lung) was 34.1 µM and the TGI (SF-295 CNS) was 24.2 µM. For the same molecule, the TGI (A498 renal) was 91.7 µM, the TGI (HCT-116 colon) was 32.5 µM and the TGI (SK-MEL-5 melanoma) was 66.6 µM. It also gave a TGI (RXF 393 renal) of 6.67 µM, a TGI (HCC-2998 colon) of 93.7 µM and a TGI (DLD-1 colon) of 57.3 µM. For the same molecule, the TGI (OVCAR-5 ovarian) was 96.7 µM, the TGI (SNB-78 CNS) was 47.1 µM and the TGI (K-562 leukemia) was > 100 µM. For the same molecule, the TGI (IGROV1 ovarian) was > 100 µM, the TGI (SN12C renal) was 30.1 µM and the TGI (786-0 renal) was 39.1 µM. For the same molecule, the TGI (SK-OV-3 ovarian) was 69.6 µM, the TGI (SNB-75 CNS) was 26 µM and the TGI (UACC-62 melanoma) was 47.6 µM. It also gave a TGI (UO-31 renal) of 56.3 µM, a TGI (NCI-H23 lung) of 18 µM and a TGI (HOP-92 NSCLC) of 24.8 µM. The TGI (OVCAR-8 ovarian) was 30.5 µM, the TGI (NCI-H522 lung) was > 100 µM and the TGI (CAKI-1 renal) was 47.7 µM. The TGI (COLO 205 colon) was > 100 µM, the TGI (LOX IMVI melanoma) was 32.3 µM and the TGI (NCI-H460 lung) was > 100 µM. The TGI (ACHN renal) was 30.3 µM, the TGI (CCRF-CEM leukemia) was 44.1 µM and the TGI (TK-10 renal) was 28.6 µM. For the same molecule, the TGI (SR leukemia) was 5.63 µM, the TGI (MALME-3M melanoma) was > 100 µM and the TGI (OVCAR-3 ovarian) was 40.6 µM. For the same molecule, the TGI (RPMI-8226 leukemia) was 48.7 µM, the TGI (DMS 273 small cell lung) was 45.9 µM and the TGI (HOP-18 NSCLC) was 34.8 µM. The TGI (HCT-15 colon) was > 100 µM, the TGI (KM12 colon) was 39.4 µM and the TGI (SK-MEL-28 melanoma) was 35 µM. For the same molecule, the TGI (OVCAR-4 ovarian) was > 100 µM and the TGI (KM20L2 colon) was 92.7 µM.
In the case of `Cc1ccc(NC(=O)CC2C(=O)Nc3ccccc3S2=O)c(C)c1` (stereo not given), the TGI (UACC-257 melanoma) was > 100 µM, the TGI (M19-MEL melanoma) was > 69.1 µM and the TGI (RXF-631 renal) was > 71.3 µM. The TGI (SW-620 colon) was 67.4 µM, the TGI (EKVX NSCLC) was > 100 µM and the TGI (HT29 colon) was 20.4 µM. It also gave a TGI (SF-268 CNS) of 65.3 µM, a TGI (LXFL 529 NSCLC) of 61.6 µM and a TGI (HOP-62 NSCLC) of 38.1 µM. For the same molecule, the TGI (M14 melanoma) was 46.7 µM, the TGI (U251 CNS) was 27 µM and the TGI (MOLT-4 leukemia) was > 52.5 µM. It also gave a TGI (SK-MEL-2 melanoma) of 35.9 µM, a TGI (SNB-19 CNS) of 30.8 µM and a TGI (A549 NSCLC) of 64.8 µM. The TGI (NCI-H226 lung) was 51.6 µM, the TGI (SF-539 CNS) was 26.3 µM and the TGI (DMS 114 small cell lung) was 34.4 µM. The TGI (SF-295 CNS) was 29.7 µM, the TGI (A498 renal) was 61.3 µM and the TGI (HCT-116 colon) was 38.3 µM. For the same molecule, the TGI (SK-MEL-5 melanoma) was 38.1 µM, the TGI (RXF 393 renal) was 24.1 µM and the TGI (HCC-2998 colon) was > 72.6 µM. The TGI (DLD-1 colon) was > 76.5 µM, the TGI (OVCAR-5 ovarian) was > 100 µM and the TGI (SNB-78 CNS) was 47.6 µM. The TGI (K-562 leukemia) was > 87.1 µM, the TGI (IGROV1 ovarian) was 42.1 µM and the TGI (SN12C renal) was 96.7 µM. For the same molecule, the TGI (786-0 renal) was 33.4 µM, the TGI (SK-OV-3 ovarian) was 33.9 µM and the TGI (SNB-75 CNS) was 30 µM. For the same molecule, the TGI (UACC-62 melanoma) was 42.4 µM, the TGI (UO-31 renal) was 45.3 µM and the TGI (NCI-H23 lung) was 32.8 µM. For the same molecule, the TGI (HOP-92 NSCLC) was 29.8 µM, the TGI (OVCAR-8 ovarian) was 34.1 µM and the TGI (NCI-H522 lung) was 22 µM. For the same molecule, the TGI (CAKI-1 renal) was > 48.4 µM, the TGI (COLO 205 colon) was 60.5 µM and the TGI (LOX IMVI melanoma) was > 87.7 µM. For the same molecule, the TGI (NCI-H460 lung) was > 64.3 µM, the TGI (ACHN renal) was 72.9 µM and the TGI (CCRF-CEM leukemia) was 67 µM. The TGI (TK-10 renal) was 56.5 µM, the TGI (XF 498 CNS) was 28.7 µM and the TGI (SR leukemia) was 7.54 µM. For the same molecule, the TGI (HL-60(TB) leukemia) was 11 µM, the TGI (MALME-3M melanoma) was > 68.2 µM and the TGI (OVCAR-3 ovarian) was 23.2 µM. For the same molecule, the TGI (RPMI-8226 leukemia) was 44.8 µM, the TGI (DMS 273 small cell lung) was > 54.1 µM and the TGI (HOP-18 NSCLC) was 67.4 µM. For the same molecule, the TGI (HCT-15 colon) was 25.4 µM, the TGI (KM12 colon) was > 100 µM and the TGI (SK-MEL-28 melanoma) was > 100 µM. For the same molecule, the TGI (OVCAR-4 ovarian) was 41.6 µM and the TGI (KM20L2 colon) was > 49.1 µM.
